Measurements taken from patent US6933272B1 (priority 1998, dated 2005).
“Also recorded” adds a separate entry of the source. Where two headings read alike, the source gives them in different places. One block for each molecule: values may come before it.

How the values were obtained:
3T3L1 adipocyte cells = test: Glucose transport (3H-deoxyglucose uptake) in 3T3L1 adipocyte cells; type: cell-based, mouse; details: for effect of compound alone on glucose transport: basal, no insulin
Experimental: Glucose transport was determined using a modification of the method of S. J. Isakoff et at. (23). The assay involved measuring the effect of compounds on the uptake of ^3H-deoxyglucose into 3T3L1 adipocyte cells.
The cell line, 3T3-L1, derived from mouse embryo fibroblasts, was grown in 250 mL tissue culture flasks containing 15 mL medium made up of DMEM (Dulbecco's modified Eagle's medium containing glutamine, 2 mM; sodium bicarbonate, 30 mM; penicillin 71.5 mg/litre; streptomycin, 152.5 mg/litre) supplemented with 10% foetal calf serum (FCS), pH 7.4. Cells were maintained in a humidified incubator at 37° C. in a 5% CO2 environment. The medium was changed every 3 days and the cells were split when they were about 70-80% confluent.
3T3-L1 fibroblast cells from one tissue culture flask were suspended in 50 mL of DMEM media containing 10% FCS and 0.5 mL of this suspension were seeded into each well of two 48-well tissue culture plates. The differentiation of the cells was initiated when the fibroblast cells were fully confluent. Routinely, differentiation was induced on cells that had been growing in tissue culture plates for 4-5 days. […] The cells were subsequently maintained with DMEM medium containing 10% FCS.
One day prior to the glucose transport assay, cell medium was replaced with DMEM containing 10% charcoal-treated foetal calf serum (CTFCS). On the day of the assay, the medium was aspirated and each well was washed with 1 mL of 25 mM Hepes, pH 7.4 containing 0.9% NaCl (NaCl-HEPES). […] Ten microlitres of NaCl-HEPES containing 3 mM 2-deoxy-D-glucose and 0.1 μCi 2-deoxy-D-[1-^3H]glucose were then added. Following a 10 min incubation at 37° C., the medium was aspirated off and the wells rapidly washed three times with 1 mL of ice-cold 50 mM phosphate, pH 7.5 containing 150 mM NaCl (PBS) and 10 mM glucose. Two hundred microlitres of 3% Triton X-100 was then added to each well and left to incubate for a minimum of 10 minutes. One hundred microlitres of the solubilised cells was then added to 2.5 mL of liquid scintillation fluid and counted for radioactivity in a Beckman β-counter.

[1] = target: T1, insulin receptor β-subunit (Homo sapiens, UniProt P06213); test: Insulin receptor autophosphorylation (32P into 90 kDa band); type: biochemical
T1 construct: expressed in transfected cells
Experimental: After this preincubation, 2.5 μL of 1 mM ATP, 100 mM sodium orthovanadate and 5 μCi of [γ-^32P]ATP were added and incubated at room temperature for 25 minutes. The reaction was terminated by the addition of 1.5 μL of 0.5 M EDTA and 3.5 μL of 1.5 M NaCl. The solution was then either solubilised and resolved by SDS-PAGE or immunoprecipitated using anti-insulin Rβ (29B4) mouse monoclonal IgG or anti-phosphotyrosine (PY20) mouse monoclonal IgG (Santa Cruz Biotechnology Inc., USA), solubilised and then resolved by SDS-PAGE. Immunoprecipitation was performed by incubating one microgram of antibody with the reaction mixture over night at 4° C. […] The receptor-antibody-Sepharose complex was separated from the supernatant by centrifugation at 7,500 g for 5 minutes. The pellet was washed three times in TBS containing 0.1% Triton X-100 and 10 μL of 0.1 M glycine, pH 3.3 was added. The solution was then solubilised by incubation for 5 minutes at 100° C. in 10 μL of 80 mM Tris-HCl, pH 6.8 containing 0.45 M DTT, 56 mM EDTA, 30% sucrose and 6% SDS. Following centrifugation for 5 minutes at 7,500 g, the supernatant was resolved on a 7.5% SDS polyacrylamide gel. […] In some instances, gel bands corresponding to 90 kDa were excised and the associated radioactivity was measured by suspending the gel band in 2.5 mL of Scintillation fluid (Beckman) using a Beckman β-counter.

[2] = target: insulin receptor β-subunit associated tyrosine kinase activity (Homo sapiens, UniProt P06213); test: Protein tyrosine kinase (PTK) assay, 32P incorporation into FYF peptide; type: biochemical; details: for effect of compound alone on 32P incorporation into FYF peptide: basal, absence of insulin
Experimental: Protein tyrosine kinase activity was determined using a modification of the method of N. Konstantopoulos (22).
The reaction was allowed to proceed for 20 minutes at 30° C. before it was terminated by the addition of 12.5 μL of 7.5 M guanidine hydrochloride. An aliquot (10 μL) of the reaction mixture was then spotted onto a Whatman 81 phosphocellulose paper (15 mm×15 mm), washed three times (2 min per wash) in about 50 mL of 30% acetic acid, 0.05% orthophosphoric acid then finally, with one wash in about 200 mL of water. The papers were then rinsed briefly (15 sec) in 95% ethanol, dried, suspended in 2.5 mL of scintillation fluid (Beckman) and counted for radioactivity in a Beckman β-counter.

insulin receptor [3] = target: T2, insulin receptor (Homo sapiens, UniProt P06213); test: 125I insulin binding to human placental plasma membranes (HPPM); design: Human Placental Plasma Membranes—50 mM Hepes, pH 7.8 @ 4 C containing 100 U/mL Bacitracin; from tissue; host or cells: human placenta, plasma membranes; details: human placental plasma membranes, 16 h at 4° C.
Experimental: (§1) Tubes were mixed and incubated for 16 h at 4° C. After the incubation, the tubes were placed on ice and 300 μL of a 1:5 suspension of 0.4% bovine-γ-globulin in 20% polyethyleneglycol 6000 (BDH chemicals) was added to each tube, mixed thoroughly and left to incubate for 30 min on ice. The tubes were then centrifuged (3,000 g) for 30 min at 4° C., the supernatant was aspirated off and the pellet counted for radioactivity. […] Inhibition constants were estimated by graphical analysis of displacement plots or calculated using the curve fitting programs EBDA and/or LIGAND.
Target sequence in this assay (P06213 28-758 limits assumed): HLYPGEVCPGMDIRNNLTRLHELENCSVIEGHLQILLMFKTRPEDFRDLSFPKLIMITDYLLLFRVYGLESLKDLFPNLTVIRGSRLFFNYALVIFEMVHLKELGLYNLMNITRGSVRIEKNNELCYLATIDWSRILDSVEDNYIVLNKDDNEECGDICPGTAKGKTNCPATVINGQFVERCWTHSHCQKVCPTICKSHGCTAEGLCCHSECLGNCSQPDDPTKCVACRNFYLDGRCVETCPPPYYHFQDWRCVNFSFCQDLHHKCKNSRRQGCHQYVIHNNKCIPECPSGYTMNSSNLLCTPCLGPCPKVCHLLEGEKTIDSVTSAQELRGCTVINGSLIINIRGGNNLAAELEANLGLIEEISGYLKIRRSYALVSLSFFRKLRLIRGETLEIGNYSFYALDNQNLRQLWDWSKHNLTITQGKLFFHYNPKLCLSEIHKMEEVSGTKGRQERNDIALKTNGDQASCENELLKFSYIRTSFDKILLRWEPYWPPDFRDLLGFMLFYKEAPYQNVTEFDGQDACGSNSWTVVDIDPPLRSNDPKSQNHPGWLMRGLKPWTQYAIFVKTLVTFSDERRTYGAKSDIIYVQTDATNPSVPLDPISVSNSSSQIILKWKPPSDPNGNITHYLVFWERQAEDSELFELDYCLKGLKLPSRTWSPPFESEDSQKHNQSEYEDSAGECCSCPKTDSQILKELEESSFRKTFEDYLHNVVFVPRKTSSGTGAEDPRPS

insulin receptor [4] = target: T2, insulin receptor; test: Assays of insulin action (several biological assays, classification agonist/antagonist)
Target sequence in this assay (P06213 with tags, fused parts or gaps): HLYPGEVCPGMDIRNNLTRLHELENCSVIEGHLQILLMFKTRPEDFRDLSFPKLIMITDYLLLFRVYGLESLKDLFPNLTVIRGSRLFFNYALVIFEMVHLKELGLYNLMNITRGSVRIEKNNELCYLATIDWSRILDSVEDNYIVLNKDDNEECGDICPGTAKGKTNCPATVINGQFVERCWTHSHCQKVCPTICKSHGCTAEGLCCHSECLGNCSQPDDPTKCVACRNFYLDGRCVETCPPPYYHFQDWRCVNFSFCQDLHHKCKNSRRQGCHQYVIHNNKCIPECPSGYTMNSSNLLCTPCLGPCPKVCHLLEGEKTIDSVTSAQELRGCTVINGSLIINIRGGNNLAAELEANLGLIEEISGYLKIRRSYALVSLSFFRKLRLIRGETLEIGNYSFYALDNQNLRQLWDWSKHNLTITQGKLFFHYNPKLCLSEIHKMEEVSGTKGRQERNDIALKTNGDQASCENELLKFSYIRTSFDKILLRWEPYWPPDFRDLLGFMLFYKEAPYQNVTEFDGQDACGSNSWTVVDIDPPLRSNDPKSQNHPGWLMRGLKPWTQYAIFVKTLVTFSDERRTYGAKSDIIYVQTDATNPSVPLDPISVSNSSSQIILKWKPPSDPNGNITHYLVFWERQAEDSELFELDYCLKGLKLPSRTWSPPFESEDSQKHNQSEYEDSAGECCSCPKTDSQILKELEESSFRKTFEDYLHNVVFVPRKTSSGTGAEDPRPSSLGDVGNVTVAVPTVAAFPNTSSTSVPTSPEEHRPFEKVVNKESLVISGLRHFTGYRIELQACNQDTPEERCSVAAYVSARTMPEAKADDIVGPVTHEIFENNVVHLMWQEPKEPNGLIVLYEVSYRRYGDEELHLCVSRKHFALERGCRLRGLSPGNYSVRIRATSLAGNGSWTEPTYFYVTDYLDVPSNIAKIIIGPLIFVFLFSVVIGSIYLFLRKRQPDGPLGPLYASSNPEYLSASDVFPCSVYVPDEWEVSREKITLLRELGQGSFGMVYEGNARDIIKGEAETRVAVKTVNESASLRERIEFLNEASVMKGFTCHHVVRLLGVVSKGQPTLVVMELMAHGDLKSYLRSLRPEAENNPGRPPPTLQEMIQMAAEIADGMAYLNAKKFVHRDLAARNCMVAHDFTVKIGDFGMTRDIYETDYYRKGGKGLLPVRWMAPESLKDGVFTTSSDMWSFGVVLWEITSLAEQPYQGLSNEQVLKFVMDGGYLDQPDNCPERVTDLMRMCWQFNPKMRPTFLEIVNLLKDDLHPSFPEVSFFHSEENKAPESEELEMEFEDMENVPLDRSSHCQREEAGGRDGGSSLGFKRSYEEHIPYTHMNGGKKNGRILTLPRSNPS

IGF-1 receptor [5] = test: 125I IGF-1 binding to human placental plasma membranes (HPPM); details: same source of receptors (HPPM)
insulin receptor [6] = target: T2, insulin receptor; test: 125I insulin binding to wheat germ agglutinin purified insulin receptors (WGA.IR); design: host or cells: several: placental membranes, CHO.T11 cells, WGA purified receptors; details: LIGAND 1-site fit
Experimental: as §1
Target sequence in this assay (P06213 28-758 limits assumed): as the sequence (P06213 28-758 limits assumed) above

IGF-1 receptor [7] = target: T3, IGF-1 receptor (Homo sapiens, UniProt P08069); test: 125I IGF-1 binding to human placental plasma membranes (HPPM); design: from tissue; host or cells: human placenta, plasma membranes; details: HPPM
IGF-1 receptors = target: T4, IGF-1 receptors (Cricetulus griseus, UniProt A0A8C2N2R2); test: 125I IGF-1 binding to WGA purified receptor preparations from CHO wild-type cells
T4 construct: have high endogenous populations of IGF-1 receptors; endogenous in cells; host or cells: CHO wild-type cells, solubilised, WGA purified

[8] = test system: streptozotocin induced diabetic mice; test: Blood glucose levels in streptozotocin induced diabetic mice; type: in vivo, mouse
Experimental: Six week old male CD-1 mice were injected intra peritoneally with a sterile solution of streptozotocin prepared in 100 mM citrate buffer, pH 4.65 at a dose of 200 mg/kg and an injection volume of 16.7 mL/kg. Mice were housed in a 12 h light/dark cycle and fed a normal chow diet ad libitum. Drinking water was supplemented with 5% sucrose for the first two days following streptozotocin injection before being replaced with tap water thereafter. After 4 days, blood was taken from the saphenous vein of the mice using the method of Hem, A et al. (26). Random non-fasting blood glucose levels were determined on venous blood using an esprit glucometer (Bayer). Mice with blood glucose levels of greater than 15 mmol/L were characterised as diabetic.
Blood glucose levels of mice were determined, followed by an intra peritoneal dose of IM compound dissolved in diluent (1.6% glycerin, 0. 25% m-cresol, pH 6.75). Mice were then bled periodically and whole blood glucose levels were determine using a one-touch esprit glucometer (Bayer).

insulin receptor [9] = target: T2, insulin receptor; test: 125I insulin binding, insulin receptors from a number of sources; design: host or cells: several: placental membranes, CHO.T11 cells, WGA purified receptors
Experimental: as §1
Target sequence in this assay (P06213 28-758 limits assumed): as above

IGF-1 receptor [10] = target: T3, IGF-1 receptor; test: Phosphorylation of immunoprecipitated IGF-1 receptors; type: biochemical; details: immunoprecipitated IGF-1 receptors free of insulin receptors
NIH 3T3 HIR3.5 cells = details: read-out: half maximal insulin concentration for stimulation of 3H-deoxyglucose; cited from earlier work

T3 sequence (P08069 31-736 limits assumed): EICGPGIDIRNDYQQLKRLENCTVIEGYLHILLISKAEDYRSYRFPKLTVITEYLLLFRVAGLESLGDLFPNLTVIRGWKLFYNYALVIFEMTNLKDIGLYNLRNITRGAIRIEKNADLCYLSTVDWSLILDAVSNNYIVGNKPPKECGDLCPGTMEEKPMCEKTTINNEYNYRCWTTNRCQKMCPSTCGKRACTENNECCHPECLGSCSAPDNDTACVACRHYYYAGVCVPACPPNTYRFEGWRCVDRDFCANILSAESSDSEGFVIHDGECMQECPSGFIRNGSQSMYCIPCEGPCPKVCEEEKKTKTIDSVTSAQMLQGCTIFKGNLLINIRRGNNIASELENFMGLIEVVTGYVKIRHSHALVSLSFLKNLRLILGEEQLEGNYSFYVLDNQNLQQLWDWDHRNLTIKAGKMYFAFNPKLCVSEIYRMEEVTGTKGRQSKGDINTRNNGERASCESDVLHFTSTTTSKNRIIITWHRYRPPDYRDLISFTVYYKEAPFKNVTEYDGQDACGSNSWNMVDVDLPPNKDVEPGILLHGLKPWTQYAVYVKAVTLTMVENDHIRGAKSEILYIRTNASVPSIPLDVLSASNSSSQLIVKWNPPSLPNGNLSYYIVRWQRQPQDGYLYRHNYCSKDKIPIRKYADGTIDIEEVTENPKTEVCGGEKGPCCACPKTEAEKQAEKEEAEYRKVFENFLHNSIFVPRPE
insulin receptor β-subunit associated tyrosine kinase activity, sequence (P06213 28-758 limits assumed): as the sequence (P06213 28-758 limits assumed) above
T1 sequence (P06213 28-758): as the sequence (P06213 28-758 limits assumed) above
T1 sequence (P06213 763-1382): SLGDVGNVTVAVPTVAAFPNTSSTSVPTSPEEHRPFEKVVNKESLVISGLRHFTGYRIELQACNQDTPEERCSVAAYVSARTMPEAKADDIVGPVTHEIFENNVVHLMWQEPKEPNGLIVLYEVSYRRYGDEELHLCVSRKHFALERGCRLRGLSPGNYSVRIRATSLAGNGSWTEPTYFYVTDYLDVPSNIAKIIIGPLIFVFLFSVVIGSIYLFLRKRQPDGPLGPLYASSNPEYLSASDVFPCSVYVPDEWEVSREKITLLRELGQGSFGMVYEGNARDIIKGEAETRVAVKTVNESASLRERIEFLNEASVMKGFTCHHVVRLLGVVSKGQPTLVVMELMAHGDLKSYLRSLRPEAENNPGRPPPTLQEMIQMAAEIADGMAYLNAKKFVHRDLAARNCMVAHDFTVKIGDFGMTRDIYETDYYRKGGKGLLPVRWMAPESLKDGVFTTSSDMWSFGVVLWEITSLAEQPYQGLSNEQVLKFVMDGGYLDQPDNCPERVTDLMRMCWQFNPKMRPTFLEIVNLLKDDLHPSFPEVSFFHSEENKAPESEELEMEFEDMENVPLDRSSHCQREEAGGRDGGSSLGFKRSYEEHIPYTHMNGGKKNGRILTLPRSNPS
T4 sequence (A0A8C2N2R2 31-1371): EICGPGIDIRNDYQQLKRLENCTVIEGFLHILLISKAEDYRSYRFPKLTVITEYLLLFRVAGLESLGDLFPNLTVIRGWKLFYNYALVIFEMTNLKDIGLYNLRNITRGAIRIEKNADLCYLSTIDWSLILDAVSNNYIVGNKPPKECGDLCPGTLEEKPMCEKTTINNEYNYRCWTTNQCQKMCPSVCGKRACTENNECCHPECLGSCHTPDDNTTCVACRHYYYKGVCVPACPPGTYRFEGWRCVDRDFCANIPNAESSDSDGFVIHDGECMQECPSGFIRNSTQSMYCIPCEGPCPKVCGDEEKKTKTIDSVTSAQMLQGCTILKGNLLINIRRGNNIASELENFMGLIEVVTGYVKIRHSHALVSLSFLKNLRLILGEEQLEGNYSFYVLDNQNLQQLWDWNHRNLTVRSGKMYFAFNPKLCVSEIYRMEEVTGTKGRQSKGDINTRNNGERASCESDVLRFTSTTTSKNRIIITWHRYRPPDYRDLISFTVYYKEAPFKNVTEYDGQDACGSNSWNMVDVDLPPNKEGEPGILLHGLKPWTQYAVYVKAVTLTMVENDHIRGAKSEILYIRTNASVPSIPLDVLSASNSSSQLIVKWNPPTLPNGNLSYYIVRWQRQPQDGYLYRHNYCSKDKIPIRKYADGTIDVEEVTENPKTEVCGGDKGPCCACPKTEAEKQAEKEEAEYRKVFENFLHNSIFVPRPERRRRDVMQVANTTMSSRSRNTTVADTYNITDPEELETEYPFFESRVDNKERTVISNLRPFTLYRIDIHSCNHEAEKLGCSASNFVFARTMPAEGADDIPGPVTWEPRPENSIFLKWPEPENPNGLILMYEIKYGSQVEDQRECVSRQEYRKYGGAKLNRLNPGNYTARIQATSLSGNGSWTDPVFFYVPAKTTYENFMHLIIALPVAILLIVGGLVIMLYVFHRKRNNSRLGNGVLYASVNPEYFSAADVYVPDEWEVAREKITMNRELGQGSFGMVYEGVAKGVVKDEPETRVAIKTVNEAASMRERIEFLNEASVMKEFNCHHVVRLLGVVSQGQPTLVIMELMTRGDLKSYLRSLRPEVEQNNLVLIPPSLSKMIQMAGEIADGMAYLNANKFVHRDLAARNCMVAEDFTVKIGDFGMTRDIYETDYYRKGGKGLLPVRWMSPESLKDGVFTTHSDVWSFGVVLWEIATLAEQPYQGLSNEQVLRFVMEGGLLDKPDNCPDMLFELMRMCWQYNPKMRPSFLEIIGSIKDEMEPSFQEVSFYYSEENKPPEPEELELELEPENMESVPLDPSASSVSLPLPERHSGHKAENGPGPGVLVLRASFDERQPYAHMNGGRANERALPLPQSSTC

Molecule: 3,4-dihydro-7-[[6-(4-methoxyphenyl)hexenyl]oxy]-8-propyl-2H-1-benzopyran-2-carboxylic acid [IM 172]
Ki (3T3L1 adipocyte cells; 3T3L1 cells, 2 nM insulin, read-out: estimated inhibition constant (Ki), glucose transport assay): 80 µM
effect of compound alone on glucose transport (3T3L1 adipocyte cells): does not activate glucose transport in 3T3L1 cells
effect on 32P incorporation into insulin receptor β-subunit ([1]; basal): does not increase ^32P incorporation into FYF peptide or the insulin receptor β-subunit
effect of compound alone on 32P incorporation into FYF peptide [2]: does not increase ^32P incorporation into FYF peptide
Ki ([2]; inhibition of insulin stimulation, read-out: estimated inhibition constant, PTK assay): 80 µM
Ki (insulin receptor [3]; read-out: apparent Ki (inhibition constant), competition for 125I insulin binding): 218 µM
classification of insulin action (insulin receptor [4]): antagonists of insulin action

apparent Ki for 125I IGF-1 binding relative to Ki for 125I insulin binding (IGF-1 receptor [5]): approximately two fold higher
Ki (insulin receptor [3]): 320 to 550 µM
Ki (insulin receptor [6]): 189 µM
Ki (IGF-1 receptor [7]; read-out: apparent Ki, displacement of 125I IGF-1 binding): 800 to 1300 µM
classification of insulin action (insulin receptor [4]): antagonists of insulin action
IC50 (insulin receptor [4]; PTK and glucose transport (FIGS. 8 and 9), read-out: apparent IC50 in several biological assays): 30 to 200 µM
Molecule: CCCc1c(OCCCOc2ccc(C(C)=O)c(OC)c2CCC)ccc2c1OC(C(=O)O)CC2 (stereo not shown) [IM 129, 7-[3-(4-acetyl-3-methoxy-2-propylphenoxy)propoxy]-3,4-dihydro-8-propyl-2H-1-benzopyran-2-carboxylic acid]

effect on 125I IGF-1 binding (IGF-1 receptors): does not compete for ^125I IGF-1 binding
EC50 in vivo [8]: 15 µmol/kg
concentration of maximal 125I insulin binding (insulin receptor [9]): 80 to 100 µM
EC50 (insulin receptor [9]; read-out: apparent EC50 of increase in 125I insulin binding, low micromolar concentrations): 10 to 20 µM
classification of insulin action (insulin receptor [4]): agonists of insulin action
Molecule: CCc1cc(-c2ccc(F)cc2)c(O)cc1OCCCOc1ccc2c(=O)c3cc(C(=O)O)ccc3oc2c1CCC(=O)O [IM 140, 3-[4-[7-carboxy-9-oxo-3-[3-[2-ethyl-4-(4-fluorophenyl)-5-hydroxyphenoxy]propoxy]-9H-xanthene]]propanoic acid]
effect of compound alone on glucose transport (3T3L1 adipocyte cells): activates glucose transport in 3T3L1 cells
efficacy compared with insulin, glucose transport (3T3L1 adipocyte cells; compound alone, relative to maximal dose of insulin (100 nM)): 25-40%
EC50 (3T3L1 adipocyte cells; compound alone, read-out: apparent EC50, stimulation of glucose transport): 20 to 30 µM
EC50 (3T3L1 adipocyte cells; read-out: apparent EC50, glucose transport with sub-maximal insulin, in presence of 2 nM insulin): 8 µM
glucose transport, % of maximal efficacy (100 nM insulin) (3T3L1 adipocyte cells; with 2 nM insulin, compound at 15 μM): 80%
dose of peak activity, bi-phasic dose response in vivo [8]: 20 to 40 µmol/kg
effect on blood glucose levels ([8]; 100 μmol/kg, preliminary studies): does not decrease blood glucose levels
efficacy in lowering blood glucose relative to human insulin ([8]; dose of 35 μmol/kg, intra peritoneal): about 25%
effect of compound alone on 32P incorporation into FYF peptide [2]: promotes the ATP-dependent phosphorylation of endogenous FYF peptide in a dose dependent manner
effect on 125I IGF-1 binding (IGF-1 receptor [7]): does not compete for ^125I IGF-1 binding to HPPM; also recorded: promotes ^125I IGF-1 binding to HPPM

Molecule: Cc1ccc(C(=O)Nc2ccc(S(=O)(=O)O)c3cc(S(=O)(=O)O)cc(S(=O)(=O)O)c23)cc1NC(=O)c1cccc(NC(=O)Nc2cccc(C(=O)Nc3cc(C(=O)Nc4ccc(S(=O)(=O)O)c5cc(S(=O)(=O)O)cc(S(=O)(=O)O)c45)ccc3C)c2)c1 [IM 175, 8,8′-[Carbonylbis[imino-3,1-phenylenecarbonylimino(4-methyl-3,1-phenylene)carbonylimino]]bis-1,3,5-naphthalenetrisulfonic acid]
effect on IGF-1 receptor phosphorylation (IGF-1 receptor [10]): can also stimulate the IGF-1 receptor
effect on IGF-1 receptor phosphorylation (IGF-1 receptor [10]; listed as IM175): lower potency on IGF-1 receptors than it does on insulin receptors
EC50 (3T3L1 adipocyte cells; Mus musculus, 3T3-L1, compound alone, read-out: apparent EC50, stimulation of glucose transport): ~250 µM
effect of compound alone on glucose transport (3T3L1 adipocyte cells): levels approaching maximal stimulation by insulin
autophosphorylation of insulin receptor β-subunits, efficacy relative to insulin ([1]; relative to 100 nM dose of insulin, immunoprecipitated insulin receptors): about 65%
Ki (insulin receptor [3]): 46 to 48 µM
Ki (IGF-1 receptor [7]; read-out: Ki, competition for 125I IGF-1 binding): 9 µM
classification of insulin action (insulin receptor [4]): agonists of insulin action

Molecule: insulin: peptidyl ligand; the most important regulatory hormone involved in maintaining glucose homeostasis
EC50 (NIH 3T3 HIR3.5 cells): 0.0001 µM
